According to patent US8841285B2, “Potent immunosuppressive agents, derivatives and uses” (priority 2002, dated 2014):
Like-named read-outs stand apart in the source and are kept apart here.

Experiments:
[1] = tested on: cap-dependent translation; test: in vitro translation in RRL, bicistronic reporter, cap-dependent cistron; type: biochemical, rabbit
Protocol: In vitro Translation and Transcription. pSP/(CAG)33/FF/HCV/Ren·pA51 and pKS/FF/EMC/Ren were linearized by BamHI, then purified by phenol:chloroform extraction and ethanol precipitation, and dissolved in water. pSP/(CAG)33/FF/HCV/Ren·A51 and pKS/FF/EMC/Ren were individually transcribed using a large scale RNA production system in the presence of m7Gppp cap analog followed by incubation with DNase as described by the manufacturer. Resulting RNA was purified using a kit as described by the manufacturer. Translation was performed using a rabbit reticulocyte lysate system as per instructions. Briefly, 200 ng of purified RNA was combined in a 20 μl reaction containing 10 μl RRL, 0.2 μl each of minus Met and minus Leu amino acid mixtures, 70 mM KCl, 2 mM DTT, 1× translation buffer, and 10 units of RNasin. Compounds or DMSO were added to a final DMSO concentration of 2%. Reactions were incubated at 30° C. for 1.5 h, then 5 μl of the reaction mixture was assayed for luciferase activity as per instructions of luciferas reporter assay system.

293T cells = test: cellular polyribosome profiles; type: cell-based; settings: 30 min treatment
Protocol: Cellular polyribosome profiles. 293T cells were treated as indicated for 30 min. Cells were washed twice with ice-cold PBS and pipetted for 5 min in 500 μl of chilled TMK100 buffer (20 mM Tris-HCl pH 7.4, 5 mM MgCl2 100 mM KCl, 2 mM DTT, 1% Triton X-100 and 100 U/ml RNAsin in DEPC water). After clearing at 10,000×g (10 min) at 4° C., the supernatant (S10) was layered onto 11 ml, 15-45% linear sucrose gradient containing 20 mM HEPES pH 7.4, 100 mM KCl, 5 mM MgCl2 and 2 mM DTT. Ultracentrifugation at 40,000 rpm for 1.5 h at 4° C. was performed in a suitable rotor. Fractions were collected from the top of the gradient by injection of Flurinert FC-40 from bottom of centrifuge tube. Gradient profiles were monitored at 254 nm. For immunoblotting, 7 mg of total protein were processed as described above, followed by collection of 500 μl fractions were collected from the top. 100 μl aliquots of each were boiled in SDS sample buffer, followed by SDS-PAGE and immunoblotting.

MCF-7 cells = test: cell proliferation assay, MCF-7 cells; type: cell-based; settings: MCF-7 cells (FIG. 13)
Protocol: (§1) Cell Proliferation Assay. 1×10^5 of indicated cells in each well of a 96-well plate were treated with indicated compounds for 24 h followed by addition of 0.11 μCi of [^3H]-thymidine (6.7 Ci/mmol) per well for 6 h, followed by harvesting to GF/C filtermats using a cell harvester. Filtermats were air-dried and scintillation counted. IC50s were determined from quadruplicate data readings and curve-fitting analysis.

HeLa cells = test: cell proliferation assay, HeLa cells; type: cell-based
Protocol: Cell Culture and transient overexpression. HeLa, RKO, and 293T cells were cultured in DMEM (10% FBS), and Hela S3 and MCF-7 cells in RPMI1640 (10% FBS) in a water jacket cell culture incubator with 5% CO2. Transient transfection was performed using kit as described by the manufacturer. Ectopic overexpression of indicated proteins was performed using pSG5-myc-STRAP, pSG5-eIF4AI, and pcDNA-Flag-4B(wt)
as §1

## CC(/C=C/C(C)=C/[C@@H]1Cc2nc(cs2)[C@@H](C)C[C@@H](N)CC(=O)O[C@@H](C)C/C(C)=C/C=C\C(=O)O1)=C\CN(C)C [Pat A (1), Pateamine A]
[1]; 100 nM, HCV IRES bicistronic reporter
  inhibition of cap-dependent translation: nearly completely inhibited
[1]; EMCV IRES bicistronic reporter, read-out: IC50, cap-dependent initiation
  IC50: ~88 nM
[1]; HCV IRES bicistronic reporter, read-out: IC50, cap-dependent translation
  IC50: ~20 nM
293T cells
  effect on polysome profile: depletion of polysomes
MCF-7 cells
  reversibility of antiproliferative effect: irreversible
HeLa cells; HeLa cells (FIG. 13)
  reversibility of antiproliferative effect: irreversible
HeLa cells; HeLa cells overexpressing STRAP
  sensitivity on overexpression of STRAP: did not alter sensitivity
HeLa cells; HeLa cells overexpressing eIF4AI vs empty vector
  increase in IC50 on overexpression of eIF4AI: 5 fold
